We go through twelve compounds from patent US20030186967A1, “Acylresorcinol derivatives are selective vitronectin receptor inhibitors” (American Home Products Corporation, priority 1998, published 2003).

The target of this assay is T1, Vitronectin receptor αVβ3 (Homo sapiens, UniProt P05106+P06756).
T1 construct: expressed in transfected cells; host or cells: 512P5 cells (plasma membrane preparation)
The assay can be described thus: Vitronectin Receptor αVβ3 Binding Assay. The following applies: read-out: VnR (IC50μM).

T1 sequence (P06756 31-889 limits assumed): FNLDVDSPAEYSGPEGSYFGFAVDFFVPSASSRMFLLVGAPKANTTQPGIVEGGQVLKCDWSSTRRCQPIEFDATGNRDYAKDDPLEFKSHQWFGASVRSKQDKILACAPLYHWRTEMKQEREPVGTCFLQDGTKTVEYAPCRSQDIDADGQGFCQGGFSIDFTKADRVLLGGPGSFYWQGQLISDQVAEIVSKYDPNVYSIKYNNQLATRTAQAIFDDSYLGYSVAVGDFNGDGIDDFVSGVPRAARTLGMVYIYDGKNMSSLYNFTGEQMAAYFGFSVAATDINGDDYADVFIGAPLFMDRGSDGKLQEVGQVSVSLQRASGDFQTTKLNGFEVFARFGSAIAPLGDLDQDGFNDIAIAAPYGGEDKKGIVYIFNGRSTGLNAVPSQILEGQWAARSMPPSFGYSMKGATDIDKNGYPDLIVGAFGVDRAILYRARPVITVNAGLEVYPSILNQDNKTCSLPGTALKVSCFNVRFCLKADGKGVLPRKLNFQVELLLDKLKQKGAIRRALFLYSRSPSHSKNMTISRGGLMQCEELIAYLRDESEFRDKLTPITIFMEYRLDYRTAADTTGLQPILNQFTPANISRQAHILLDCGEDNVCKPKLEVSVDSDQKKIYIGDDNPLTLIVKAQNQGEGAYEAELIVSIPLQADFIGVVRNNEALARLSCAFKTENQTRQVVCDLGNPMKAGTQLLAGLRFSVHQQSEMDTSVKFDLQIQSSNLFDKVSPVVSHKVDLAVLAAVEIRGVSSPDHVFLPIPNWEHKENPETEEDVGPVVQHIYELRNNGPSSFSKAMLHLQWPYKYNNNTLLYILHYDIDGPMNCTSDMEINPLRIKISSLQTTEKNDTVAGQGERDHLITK
T1 sequence (P06756 891-1048 partner limits assumed): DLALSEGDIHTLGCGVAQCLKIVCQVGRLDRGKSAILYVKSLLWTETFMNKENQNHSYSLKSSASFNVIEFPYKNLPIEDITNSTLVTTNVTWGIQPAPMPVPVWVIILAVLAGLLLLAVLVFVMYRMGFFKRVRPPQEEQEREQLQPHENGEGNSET
T1 sequence (P05106 27-788): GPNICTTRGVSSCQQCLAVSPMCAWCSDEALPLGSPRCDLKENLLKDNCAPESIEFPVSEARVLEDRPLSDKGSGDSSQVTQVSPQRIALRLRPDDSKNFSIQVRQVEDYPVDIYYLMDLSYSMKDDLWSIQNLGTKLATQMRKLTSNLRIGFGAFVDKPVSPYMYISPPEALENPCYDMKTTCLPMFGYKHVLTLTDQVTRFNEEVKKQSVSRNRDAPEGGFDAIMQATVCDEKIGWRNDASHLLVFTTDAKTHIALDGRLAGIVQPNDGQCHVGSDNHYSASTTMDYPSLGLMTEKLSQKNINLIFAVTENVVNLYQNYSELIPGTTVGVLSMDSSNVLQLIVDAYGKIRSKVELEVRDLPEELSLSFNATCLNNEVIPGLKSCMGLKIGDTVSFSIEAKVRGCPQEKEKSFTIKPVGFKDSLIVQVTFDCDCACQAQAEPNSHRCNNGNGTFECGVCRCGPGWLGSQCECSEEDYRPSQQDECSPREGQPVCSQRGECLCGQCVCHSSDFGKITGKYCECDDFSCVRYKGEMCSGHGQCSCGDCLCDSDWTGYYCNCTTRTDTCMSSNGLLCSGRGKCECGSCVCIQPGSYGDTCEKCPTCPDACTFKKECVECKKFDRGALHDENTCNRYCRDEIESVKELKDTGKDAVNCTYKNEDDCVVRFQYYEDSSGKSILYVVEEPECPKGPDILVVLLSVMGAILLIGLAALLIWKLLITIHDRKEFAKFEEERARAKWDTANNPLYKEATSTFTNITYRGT

With `O=C(NC[C@H](NC(=O)C1CCCCC1)C(=O)O)c1ccc(OCCNC2=NCCN2)cc1O` [Example 126, (2S)-2-[(cyclohexylcarbonyl)amino]-3-({4-[2-(4,5-dihydro-1H-imidazol-2-ylamino)ethoxy]-2-hydroxybenzoyl}amino)propanoic acid], the IC50 is more than 1 µM.

`CCOC(=O)N[C@@H](CNC(=O)c1ccc(OCCNC2=NCCN2)cc1O)C(=O)O` [Example 98, (2S)-3-({4-[2-(4,5-dihydro-1H-imidazol-2-ylamino)ethoxy]-2-hydroxybenzoyl}-amino)-2-[(ethoxycarbonyl)amino]propanoic acid]: the IC50 amounted to 0.15 µM. Take `N=C(N)NCCOc1ccc(C(=O)NC[C@H](NC(=O)Cc2ccccc2)C(=O)O)c(O)c1` [Example 199, (2S)-3-{[4-(2-{[amino(imino)methyl]amino}ethoxy)-2-hydroxybenzoyl]amino}-2-[(2-phenylacetyl)amino]propanoic acid]: the IC50 amounted to 14.7 µM. Consider `Cc1ccc(NC(=O)N[C@@H](CNC(=O)c2ccc(OCCNC(=N)N)cc2O)C(=O)O)cc1` [Example 178, (2S)-3-{[4-(2-{[amino(imino)methyl]amino}ethoxy)-2-hydroxybenzoyl]amino}-2-[(4-toluidinocarbonyl)amino]propanoic acid], for which the IC50 was determined as 3.13 µM.

Turning to `Cc1ccccc1NC(=O)N[C@@H](CNC(=O)c1ccc(OCCNC2=NCCCN2)cc1O)C(=O)O` [Example 24, (2S)-3-({2-hydroxy-4-[2-(1,4,5,6-tetrahydropyrimidin-2-ylamino)ethoxy]benzoyl}-amino)-2-[(2-toluidinocarbonyl)amino]propanoic acid], the IC50 came out at 1.48 µM. Under `CCOC(=O)N[C@@H](CNC(=O)c1ccc(OCCNC(=N)N)cc1O)C(=O)O` [Example 159, (2S)-3-{[4-(2-{[amino(imino)methyl]amino)ethoxy)-2-hydroxybenzoyl]amino}-2-[(ethoxycarbonyl)amino]propanoic acid] stands 2 µM; under `COc1ccc(C(=O)N[C@@H](CNC(=O)c2ccc(OCCNC3=NCCN3)cc2O)C(=O)O)cc1` [Example 136, (2S)-3-({4-[2-(4,5-dihydro-1H-imidazol-2-ylamino)ethoxy]-2-hydroxybenzoyl}-amino)-2-[(4-methoxybenzoyl)amino]propanoic acid], more than 1 µM. With `COC(=O)N[C@@H](CNC(=O)c1ccc(OCCNC(=N)N)cc1O)C(=O)O` [Example 158, (2S)-3-{[4-(2-{[amino(imino)methyl]amino)ethoxy)-2-hydroxybenzoyl]amino}-2-[(methoxycarbonyl)amino]propanoic acid] the figure was 4.6 µM; with `N=C(N)NCCOc1ccc(C(=O)NC[C@H](NC(=O)Nc2ccc(OC(F)(F)F)cc2)C(=O)O)c(O)c1` [Example 179, (2S)-3-{[4-(2-{[amino(imino)methyl]amino}ethoxy)-2-hydroxybenzoyl]amino}-2-({[4-(trifluoromethoxy)anilino]carbonyl}amino)propanoic acid], more than 1 µM; with `O=C(Nc1cccc2ccccc12)N[C@@H](CNC(=O)c1ccc(OCCNC2=NCCCN2)cc1O)C(=O)O` [Example 31, (2S)-3-({2-hydroxy-4-[2-(1,4,5,6-tetrahydropyrimidin-2-ylamino)ethoxy]benzoyl}-amino)-2-{[(1-naphthylamino)carbonyl]amino}propanoic acid], 0.261 µM. Under `CC(C)(C)COC(=O)N[C@@H](CNC(=O)c1ccc(OCCNC(=N)N)cc1O)C(=O)O` [Example 156, (2S)-3-{[4-(2-{[amino(imino)methyl]amino}ethoxy)-2-hydroxy-benzoyl]amino}-2-{[(neopentyloxy)carbonyl]amino}propanoic acid] stands 0.25 µM. With `COc1ccc(NC(=O)N[C@@H](CNC(=O)c2ccc(OCCNC(=N)N)cc2O)C(=O)O)cc1` [Example 188], the IC50 came to 12.1 µM.
